Data set [1] can be described thus: Tissue uptake and distribution of carboxyfluorescein-labeled antisense morpholino. The class given is in vivo, HSA^LR mice. The following applies: for subcellular localization of antisense morpholino: muscle fibers, TA 3 weeks / FDB day 5. How it is done:
Antisense morpholino targeting the 3′ splice junction of ClC-1 exon 7a was injected into foot pad muscle of HSA^LR mice under general anesthesia. Uptake into muscle fibers was enhanced by in vivo electroporation. The morpholino was tagged with fluorescein. 4 days later, individual FDB muscle fibers were isolated. […] As a control, the opposite footpad was injected with morpholino having the inverted sequence. […] The peak current density in HSA^LR mice (center panel) is much lower than in wild-type mice (left panel). However, after morpholino treatment in HSA^LR mice (right panel), the current density is restored to levels that are similar to wild-type mice. […] The antisense morpholino (closed squares) restores chloride current density to normal levels (open circles or triangles).
(§1) The morpholino was complementary to the 3′ splice site of ClC-1 pre-mRNA. Muscle fibers are outlined by wheat germ agglutinin (wga) and nuclei are highlighted by DAPI. FIGS. 24D and 24 E show brightfield (D) and fluorescence (E) images of a single FDB fiber showing preferential nuclear localization of the antisense morpholino (post injection day 5). […] Bars=20 μM.
The strategy for suppressing the inclusion of exon 7a is diagrammed in FIG. 23A. The morpholino AONs were complementary to the 3′ or 5′ splice sites of exon 7a in the ClC-1 pre-mRNA (FIG. 23B). To examine tissue uptake, a carboxyfluorescein-labeled morpholino was injected into tibialis anterior (TA) muscle of HSA^LR mice. […] To improve uptake and distribution of AON, voltage pulses were used to electroporate muscle fibers after the AON injection.
HSA^LR (Mankodi, A., et al. (2000) Science 289:1769-1773) or Mbnl1^ΔE3/ΔE3 mice (Kanadia, R. N., et al. (2003) Science 302:1978-1980) were anesthetized by intraperitoneal injection of 100 mg/kg ketamine, 10 mg/kg xylazine, and 3 mg/kg acepromazine. TA muscle was pretreated by intramuscular injection of bovine hyaluronidase (15 μl, 0.4 U/μl) (Sigma) (McMahon, J. M., et al. (2001) Gene Ther 8:1264-1270). Two hours later, 10 or 20 μg of morpholino in a total volume of 20 μl phosphate buffered saline (PBS) was injected using a 30-gauge needle. TA muscle was then electroporated using electrodes placed parallel to the long axis of the muscle. Electroporation parameters were 100 V/cm, 10 pulses at 1 Hz, and 20 ms duration per pulse. Antisense or control morpholino with inverted sequence was injected into TA muscles of opposite limbs. The determination of which TA received antisense morpholino was randomized, and investigators remained blinded to this assignment until EMG analyses were completed. Other analyses were performed without blinding. For experiments to determine the distribution of injected oligos, the antisense morpholino was labeled with carboxyfluorescein and cryosections of muscle (10 μM) were examined by fluorescence microscopy, with or without fixation in 4% paraformaldehyde. Some sections were co-labeled with TRITC-wheat germ agglutinin (Parsons, S. A., et al. (2003) Mol Cell Biol 23:4331-4343) (50 μg/ml in PBS; Sigma) and 4′,6-diamidino-2-phenylindole (DAPI) to highlight the surface membranes and nuclei of muscle fibers.

The next data set concerns ClC-1 exon 7a. The experiment in a line: RT-PCR of ClC-1 exon 7a splicing after antisense morpholino, Mbnl1^ΔE3/ΔE3 mice. The data set is classed as in vivo. Particulars: TA muscle, 3 weeks, 20 μg. How it is done: (§2) FIGS. 27A, 27B, 27C, 27D, and 27E show antisense morpholino represses exon 7a inclusion, restores ClC-1 protein expression, and rescues myotonia in Mbnl1^ΔE3/ΔE3 mice. […] Bar=20 μM. […] Mean±s.d.; n=3 per group; **P<0.0001 antisense- versus invert-treated control; ANOVA.
To examine the effects of AON in this model, antisense morpholino or invert control was injected into TA muscle of Mbnl1^ΔE3/ΔE3 mice.
HSA^LR (Mankodi, A., et al. (2000) Science 289:1769-1773) or Mbnl1^ΔE3/ΔE3 mice (Kanadia, R. N., et al. (2003) Science 302:1978-1980) were anesthetized by intraperitoneal injection of 100 mg/kg ketamine, 10 mg/kg xylazine, and 3 mg/kg acepromazine. TA muscle was pretreated by intramuscular injection of bovine hyaluronidase (15 μl, 0.4 U/μl) (Sigma) (McMahon, J. M., et al. (2001) Gene Ther 8:1264-1270). Two hours later, 10 or 20 μg of morpholino in a total volume of 20 μl phosphate buffered saline (PBS) was injected using a 30-gauge needle. TA muscle was then electroporated using electrodes placed parallel to the long axis of the muscle. Electroporation parameters were 100 V/cm, 10 pulses at 1 Hz, and 20 ms duration per pulse. […] For experiments to determine the distribution of injected oligos, the antisense morpholino was labeled with carboxyfluorescein and cryosections of muscle (10 μM) were examined by fluorescence microscopy, with or without fixation in 4% paraformaldehyde. […]

Data set [2] relates to ClC-1 protein. The data set can be described thus: ClC-1 immunofluorescence after ClC-1 antisense morpholino, HSA^LR TA muscle. The following applies: 3 weeks after treatment, vs invert-treated control. The data set is classed as in vivo, HSA^LR mice. On the procedure:
as §1
(§3) Frozen transverse sections of TA muscle (10 μM) were stained with affinity-purified rabbit polyclonal anti-ClC-1 antibody (1:50; Alpha Diagnostic International) as previously described (Kanadia, R. N., et al. (2006) Proc Natl Acad Sci USA 103:11748-11753). Muscle sections from ClC-1 null mice and WT FVB mice served as negative and positive controls on each slide. Z-plane stacks consisting of 8 images separated by 0.25 μM were captured and deconvolved using Autoquant v9.3 software (Autoquant Imaging). Maximum-projection images were obtained using Metavue software (Universal Imaging Corporation). Exposure time and thresholding were identical for all comparisons of antisense vs. invert controls.

Data set [3] has as its system ClC-1 protein. The data set can be described thus: ClC-1 immunofluorescence, Mbnl1^ΔE3/ΔE3 mice. The class given is in vivo. Particulars: TA muscle, 3 weeks; listed as antisense morpholino. How it is done: as §2, §3

As to “antisense 1: morpholino 5′-CCAGGCACGGTCTGCAACAGAGAAG-3′ targeting the 3′ splice site of ClC-1 exon 7a (all phosphorodiamidate morpholino (PMO))”, the “fibers showing fluorescein uptake” value in data set [1] (FDB fibers, 4 days after foot pad injection + electroporation) was “Greater than 90%”. For the same substance, the “tissue uptake of antisense morpholino” value is given as “throughout the TA muscle” in data set [1] (TA injection followed by electroporation) and “limited to the needle track” in data set [1] (TA injection without electroporation). Also, the “subcellular localization of antisense morpholino” value in data set [1] (listed as AON) is listed as “accumulate preferentially in the nucleus”; in data set [1] (listed as antisense morpholino), “localizes preferentially to muscle nuclei”. The figures for the “ClC-1 exon 7a inclusion” value in the data set with ClC-1 exon 7a (listed as antisense morpholino) and with ClC-1 exon 7a (listed as antisense morpholino 1) were “repressed the inclusion of exon 7a” and “reduced inclusion of exon 7a”, respectively. Besides, the “sarcolemmal ClC-1 protein” value with ClC-1 protein [2] (listed as antisense morpholino) is given as “increase of sarcolemmal ClC-1 protein”; in the data set with ClC-1 protein [2] (listed as morpholino AON), “increased the level of ClC-1 protein in the sarcolemma”. Further, the “ClC-1 protein at the sarcolemma (immunofluorescence)” value in the data set on ClC-1 protein [3] is “increased the expression of ClC-1 protein at the sarcolemma”.
